Source: US20150362481A1, “METHOD FOR THE IDENTIFICATION OF BITTER TASTING COMPOUNDS AND BITTER TASTE MODULATING COMPOUNDS” (Universitat Wien, priority 2013, published 2015)
Values joined by “and” are separate entries in the source; they are usually repeats but may differ in a detail not shown here. Identical values can stand only once.

Assays:
[1] = tested on: sensorically-trained expert panel; assay: Sensoric assessment: bitter-reduction of a bitter tasting solution; assay type: in vivo, human; parameters: key to Bitterness Bitter compound + Test substance: 1 = not bitter, 10 = extremely bitter; details: for Bitterness Bitter compound alone: scale 1 [not bitter] to 10 [extremely bitter]; for Bitterness Bitter compound + Test substance: scale 1 to 10
Protocol: For categorization of the bitter impression, a scale from 1 [not bitter] to 10 [extremely bitter] was used. For calculation of the percent reduction of bitter taste, the mean values of the rating of the expert panel for the solution of the bitter substance alone and the solution of the bitter substance in combination with the tested potential masking substance were compared. Significances were calculated using a paired, two sided student t-test and indicated by the p-values in Table 4.

HGT-1 cells [2] = assay: Reduction of bitter substance induced proton secretion in HGT-1 cells by bitter-masking compounds; assay type: cell-based, human; details: 10 min
Protocol: (§1) The human gastric tumor cell line HGT-1 was used for all cell culture experiments. This cell line has been obtained from Dr. C. Laboisse (Laboratory of Pathological Anatomy, Nantes, France). The cells were cultured under standard conditions at 37° C., 95% humidity, and 5% CO2 in DMEM with 4 g/L glucose, 10% fetal bovine serum, 2% L-glutamine, and 1% penicillin/streptomycin. For the reverse transcription and the intracellular proton concentration assay, the cells were harvested using trypsin/EDTA. Cell viability has been determined using trypan blue staining for which the cells were seeded in a defined cell number in 35 mm dishes respectively in black 96-well plates. […] In a 96-well plate, a total of 100,000 HGT-1 cells were spread and allowed to settle for 24 h at 37° C., 95% humidity, and 5% CO2. Cells were washed once with KRHB and incubated with the fluorescence dye SNARF-1-AM at a concentration of 3 μM for 30 min. […] As positive control, the cells were treated with 1 mM histamine. Fluorescence was analyzed at an excitation of 488 nm and emission wavelengths were recorded at 580 nm and 640 nm on an Infinite 200 Pro plate reader. The ratio of the fluorescence intensities from those two emission wavelengths allows an accurate determination of pH when plotted on a calibration curve. […] The potassium buffer calibration solutions for the intracellular pH measurement consisted of 20 mM NaCl, 110 mM KCl, 1 mM CaCl2, 1 mM MgSO4, 18 mM D-glucose, and 20 mM HEPES. The pH calibration was fit to a linear regression curve. Intracellular proton concentration was calculated from the pH. The reduced amount of protons in the cell was calculated by log 2 transformation of the ratio between treated and untreated cells (control). The presented data is given as percent variation in comparison to untreated cells.

[3] = tested on: TAS2R10 "knockdown" HGT-1 cells; assay: Effect of caffeine on proton secretion in TAS2R10 siRNA knockdown HGT-1 cells; assay type: cell-based, human; details: 3 mM, 10 min
Protocol: The HiPerFect transfection reagent (Qiagen) was used to transfect small interfering RNA (siRNA), targeting specifically human TAS2R10 (5′-[…]-3′; Sigma-Aldrich) into HGT-1 cells for the specific reduction of TAS2R10 expression. Cells were grown to 50% confluence in serum containing DMEM-media and incubation for 48 h was started by addition of serum-free media containing siRNA targeted against TAS2R10 (final siRNA concentration 1 nM) and HiPerFect transfection reagent (1 μL/6 pmol siRNA). Unrelated non-silencing siRNA (Qiagen) was used as negative control and siRNA targeted against Mn/Hs_MAPK1 which is known to efficiently knocks down human MAPK1 (Qiagen) was used as positive control. A mock transfection, in which only the HiPerFect transfection reagent was tested, was also carried out to exclude the effects of the transfection reagent itself. The knockdown efficiency was controlled by measuring mRNA expression of TAS2R10 using RT-qPCR as explained in example 1.
Statistics: two-way ANOVA with Student-Newman-Keuls post-hoc test, data shown as mean±SEM, n=3, tr=6.

HGT-1 cells [4] = assay: Proton secretion in HGT-1 cells after stimulation with bitter substances (intracellular pH, SNARF-1-AM); assay type: cell-based, human; details: 10 min stimulation, vs untreated cells
Protocol: as §1, with “of 100 000” for “of 100,000”, “with Krebs-Ringer-HEPES buffer (KRHB),” for “with KRHB”, “488 nm, whereas” for “488 nm and”, “linear regression.” for “linear regression curve.”, “cells. […] Statistic: one-way Anova with post-hoc Test after Dunn's. Significant differences (p<0.05) are indicated by letters. […] Statistic: one-way Anova with post-hoc Test after Dunn's. Significant differences (p<0.05) are indicated by letters.” for “cells.”

[5] = caffeine 500 ppm + test compound 100 ppm
[6] = theobromine 300 ppm + test compound 100 ppm
[7] = 0.3 mM theobromine + 0.03 mM test compound
[8] = 0.3 mM theobromine + 0.3 mM test compound
[9] = 3 mM caffeine + 0.03 mM test compound
[10] = 3 mM caffeine + 0.3 mM test compound
[11] = caffeine 500 ppm + test compound 25 ppm
[12] = theobromine 300 ppm + test compound 25 ppm

With `Cn1c(=O)c2c(ncn2C)n(C)c1=O` [Caffeine, caffeine] the “Bitterness Bitter compound alone” value ([1]; 500 ppm) was 6.7 ± 1.1 and 4.1 ± 0.9 and 6.3 ± 1.4, the “Percent increase in proton secretion T/C [%]” value (from here on “Percent increase … [%]”) (HGT-1 cells [2]; 3 mM caffeine alone) was 54.79% and 54.05% and 38.75% and 52.41% and the “Percent effect on proton secretion T/C [%]” value (from here on “Percent effect … [%]”) ([3]; mock transfected cells) was 52.80%. For the same compound, the “Percent effect … [%]” value ([3]; not transfected cells) was 48.80%, the “Percent effect … [%]” value ([3]; siRNA TAS2R10 knockdown cells) was 28.58% and the “Proton secretion T/C [%]” value (HGT-1 cells [4]; 0.3 μM) was 25.49%. The “Proton secretion T/C [%]” value (HGT-1 cells [4]; 3 μM) was 14.74%, the “Proton secretion T/C [%]” value (HGT-1 cells [4]; 30 μM) was 23.43% and the “Proton secretion T/C [%]” value (HGT-1 cells [4]; 300 μM) was 17.07%. The “Proton secretion T/C [%]” value (HGT-1 cells [4]; 3000 μM) was 40.97%.

`O=C1C[C@@H](c2ccc(O)c(O)c2)Oc2cc(O)cc(O)c21` [Eriodictyol, eriodictyol] was tested, and the “% Reduction of the Bitter impression” value [1, 5] was 47%, the “Bitterness Bitter compound + Test substance” value [1, 5] was 3.5 ± 0.7 and the “% Reduction of the Bitter impression” value [1, 6] was 36%. For the same compound, the “Bitterness Bitter compound + Test substance” value [1, 6] was 2.4 ± 1.2, the “Percent increase … [%]” value (HGT-1 cells [2]; [7]) was 23.95% and the “Percent increase … [%]” value (HGT-1 cells [2]; [8]) was −42.86%. For the same compound, the “Percent increase … [%]” value (HGT-1 cells [2]; [9]) was 29.69% and the “Percent increase … [%]” value (HGT-1 cells [2]; [10]) was −33.96%.

`COc1cc([C@@H]2CC(=O)c3c(O)cc(O)cc3O2)ccc1O` [Homoeriodictyol, homoeriodictyol] was tested, and the “% Reduction of the Bitter impression” value [1, 5] was 28%, the “Bitterness Bitter compound + Test substance” value [1, 5] was 4.5 ± 1.4 and the “% Reduction of the Bitter impression” value [1, 6] was 12.5%. The “Bitterness Bitter compound + Test substance” value [1, 6] was 3.7 ± 1.3, the “Percent increase … [%]” value (HGT-1 cells [2]; 0.3 mM theobromine + 0.003 mM test compound) was 21.56% and the “Percent increase … [%]” value (HGT-1 cells [2]; [7]) was 13.79%. The “Percent increase … [%]” value (HGT-1 cells [2]; [8]) was −16.92%, the “Percent increase … [%]” value (HGT-1 cells [2]; [9]) was 37.99% and the “Percent increase … [%]” value (HGT-1 cells [2]; [10]) was 20.18%.

`NCCc1c[nH]cn1` [Histamine, histamine] was tested, and the “Proton secretion T/C [%]” value (HGT-1 cells [4]; 1 mM) was 36.66% and 45.70%.

With `COc1cc(C[C@H]2CO[C@H](c3ccc(O)c(OC)c3)[C@H]2CO)ccc1O` [Lariciresinol, lariciresinol] the “% Reduction of the Bitter impression” value [1, 11] was 38.6%, the “Bitterness Bitter compound + Test substance” value [1, 11] was 2.9 ± 1.41 and the “% Reduction of the Bitter impression” value [1, 12] was 10.7%. The “Bitterness Bitter compound + Test substance” value [1, 12] was 3.7 ± 2.24, the “Percent increase … [%]” value (HGT-1 cells [2]; [7]) was 31.73% and the “Percent increase … [%]” value (HGT-1 cells [2]; [8]) was 17.55%. For the same compound, the “Percent increase … [%]” value (HGT-1 cells [2]; [9]) was 46.40% and the “Percent increase … [%]” value (HGT-1 cells [2]; [10]) was 21.57%.

For `COc1cc(C[C@H]2COC(=O)[C@@H]2Cc2ccc(O)c(OC)c2)ccc1O` [Matairesinol, matairesinol], the “% Reduction of the Bitter impression” value [1, 11] was 35.5%, the “Bitterness Bitter compound + Test substance” value [1, 11] was 2.7 ± 1.77 and the “% Reduction of the Bitter impression” value [1, 12] was 24.7%. For the same compound, the “Bitterness Bitter compound + Test substance” value [1, 12] was 3.4 ± 1.49, the “Percent increase … [%]” value (HGT-1 cells [2]; [7]) was 23.41% and the “Percent increase … [%]” value (HGT-1 cells [2]; [8]) was −18.25%. The “Percent increase … [%]” value (HGT-1 cells [2]; [9]) was 14.39% and the “Percent increase … [%]” value (HGT-1 cells [2]; [10]) was −20.43%.

In the case of `Cn1cnc2c1c(=O)[nH]c(=O)n2C` [Theobromine, theobromine], the “Bitterness Bitter compound alone” value ([1]; 300 ppm) is reported as 3.8 ± 1.8 and 4.5 ± 2.01 and 4.2 ± 1.65 and 4.3 ± 1.8, the “Proton secretion T/C [%]” value (HGT-1 cells [4]; 0.03 μM) is reported as 3.71% and the “Proton secretion T/C [%]” value (HGT-1 cells [4]; 0.3 μM) is reported as 17.71%. The “Proton secretion T/C [%]” value (HGT-1 cells [4]; 3 μM) was 43.16%, the “Proton secretion T/C [%]” value (HGT-1 cells [4]; 30 μM) was 44.88% and the “Proton secretion T/C [%]” value (HGT-1 cells [4]; 300 μM) was 57.2%.
